# Laboratory results taken from US20190022092A1, “Therapeutic Combinations of a BTK Inhibitor and a GITR Binding Molecule, a 4-1BB Agonist, or an OX40 Agonist” (Acerta Pharma B.V., priority 2015, published 2019).
# How the values were obtained:
# Th17 and Treg cells = assay: Th17 and Treg development of CD4+ T cells under skewing cytokines; format: cell-based
# Protocol: Enriched CD4^+ T cells are plated on 24-well culture dishes that have been precoated 2 hr with 250 μL anti-TCRβ (0.5 μg/mL) plus anti-CD28 (5 μg/mL) at 37° C. in PBS. The cells are then supplemented with media containing BTK inhibitors along with the skewing cytokines as indicated in the following. The Th17 and Treg cultures are grown for 4 days before analysis. The cells are maintained for an additional 3 days with skewing cytokines (Th17; 20 ng/mL IL-6, 0.5 ng/mL TGF-β, 5 μg/mL IL-4, 5 μg/mL IFN-γ and Treg; 0.5 ng/mL TGF-β, 5 μg/mL IL-4, 5 μg/mL IFN-γ) and are supplemented with IL2 as a growth factor.
# [1] = system: NK cell lysis of Raji cells; assay: Rituximab ADCC 51Cr release assay, Raji targets; format: cell-based, human
# Source text: Cell culture conditions were as follows. […] The HER18 cells were maintained in DEM supplemented with fetal bovine serum, penicillin-streptomycin and. Prior to assay, HER18 cells were harvested using trypsin-EDTA, washed with phosphate-buffered saline (PBS) containing 5% serum and viable cells were counted. For culture of primary target cells, peripheral blood from CLL patients was subject to density centrifugation to obtain peripheral blood mononuclear cells (PBMC). Cell preparations were washed and then subject to positive selection of CD5^+CD19^+ CLL cells using magnetic beads (MACS, Miltenyi Biotech). Cell preparations were used fresh after selection. NK cells from CLL patients and healthy volunteers were enriched from peripheral blood collected in sodium citrate anticoagulant tubes and then subject to density centrifugation. Removal of non NK cells was performed using negative selection by MACS separation. Freshly isolated NK cells were washed three times, enumerated, and then used immediately for ADCC assays.
# ADCC assays were performed as follows. Briefly, target cells (Raji or primary CLL) were labeled by incubation at 37° C. with 100 μCi ^51Cr for 4 hours prior to co-culture with NK cells. Cells were washed, enumerated, and then added in triplicate to prepared 96-well plates containing treated NK cells at an effector:target (E:T) ratio of 25:1. […] Cultures were incubated at 37° C. for 4 hours, and then centrifuged. Supernatants were harvested and ^51Cr release was measured by liquid scintillation counting. All experiments were performed in triplicate.
# CD8+ T cells = assay: CD8+ T cell viability on anti-TCR/anti-CD28 coated wells; format: cell-based; details: 4 days, neutral culture conditions
# Protocol: Total T cells were plated on anti-TCR and anti-CD28 coated wells in the presence of both BTK inhibitors. Neutral culture conditions were used that will not polarize T cells to a helper lineage. […] Statistical significance was calculated using the Mann Whitney T-test.
# hematologic malignancies = details: cited from earlier work
# CD8+ T cell [2] = assay: Cytotoxicity assay for CD8+ T cell function; format: cell-based; details: relative to vehicle
# Source text: FIG. 38 illustrates the results of the cytotoxicity assay for CD8^+ T cell function.
# [3] = system: GPVI platelet aggregation; assay: GPVI (convulxin-induced) platelet aggregation; format: cell-based; details: human platelets
# Protocol: In FIG. 67, the results of CVX-induced (250 ng/mL) human platelet aggregation results before and 15 minutes after administration of the BTK inhibitors to 6 healthy individuals are shown.
# [4] = system: CD8+ T cell function (B lymphoblast targets); assay: Cytotoxic T cell (CTL) assay; format: cell-based; details: CTL generated 4 days with 500 nM inhibitor
# Protocol: Without being bound by any theory, CD8^+ T cells have two primary effector functions: (1) produce large amounts of IFN-γ (which activates macrophages), and (2) cytolytic activity. […] The targets were B lymphoblasts from lipopolysaccharide (LPS) treated cultures. The assay was performed by incubating different ratios of effectors:targets for 4 hours.
# Raji cell line = assay: Antibody-dependent NK cell-mediated cytotoxicity, chromium release, Raji cell line; format: cell-based; details: 1 μM, 4 hours, variable rituximab, effector:target 25:1
# CD8+ T cell [5] = assay: IFN-γ level measurements for CD8+ T cell function; format: cell-based; details: relative to vehicle
# Source text: FIG. 39 illustrates the results of IFN-γ level measurements for CD8^+ T cell function.
# [6] = system: GPVI platelet aggregation; assay: GPVI platelet aggregation studies; format: cell-based; details: read-out: IC50, GPVI platelet aggregation
# [7] = system: human platelet-mediated thrombosis; details: VWF HA1, mouse (infused with human platelets), in vivo, 2 min
# Protocol: Injury to the vessel wall of arterioles ([…] diameter) was performed using a pulsed nitrogen dye laser (440 nm, Photonic Instruments) applied through a 20× water-immersion Olympus objective (LUMPlanF1, 0.5 numerical aperture (NA)) of a Zeiss Axiotech vario microscope. […] The extent of thrombus formation was assessed for 2 minutes after injury and the area (μm^2) of coverage determined (Image IQ, Andor Technology).
# The BTK inhibitor-treated human platelets were fluorescently labeled and infused continuously through a catheter inserted into the femoral artery.
# peripheral blood B cell = details: doses from 0.001-100 mg/kg, two experiments; cited from earlier work
compound,measurement,setting,value
"C=CC(=O)N1CCC[C@@H](n2nc(-c3ccc(Oc4ccccc4)cc3)c3c(N)ncnc32)C1 [Formula (10), 1-[(3R)-3-[4-amino-3-(4-phenoxyphenyl)-1H-pyrazolo[3,4-d]pyrimidin-1-yl]piperidin-1-yl]prop-2-en-1-one, reference compound]",Th17 development,Th17 and Treg cells,profound inhibition
same,Treg development,Th17 and Treg cells,increase
same,"effect on rituximab-mediated ADCC, Raji cells","[1]; 1 μM, NK cells, E:T 25:1",strongly inhibited
same,CD8+ T cell viability,CD8+ T cells,"strong, negative effect"
same,antitumor activity,hematologic malignancies; subjects with heavily pretreated non-Hodgkin lymphoma,substantial antitumor activity
same,maximum tolerated dose (MTD),hematologic malignancies; within the tested dose range (through 840 mg),No maximum tolerated dose (MTD) was apparent
same,CD8+ T cell function as % cytotoxicity,CD8+ T cell [2],affects CD8^+ T cell function as measured by % cytotoxicity
same,GPVI platelet aggregation,[3],significantly inhibits
same,CD8+ T cell function as % cytotoxicity,[4],affects CD8^+ T cell function
same,CD8+ T cell function as IFN-γ levels,[4],significant loss of function
same,antibody-dependent NK cell-mediated cytotoxicity (percent lysis),Raji cell line,antagonizes antibody-dependent NK cell-mediated cytotoxicity
same,CD8+ T cell function as IFN-γ level,CD8+ T cell [5],affects CD8^+ T cell function as measured by IFN-γ level
same,IC50,[6],130 nM
"C=CC(=O)Nc1cccc(Nc2nc(Nc3ccc(OCCOC)cc3)ncc2F)c1 [Formula (17), N-(3-((5-fluoro-2-((4-(2-methoxyethoxy)phenyl)amino)pyrimidin-4-yl)amino)phenyl)acrylamide, reference compound]",effect on human platelet-mediated thrombus formation,[7],effect similar to Formula (10) (ibrutinib)
"PF-05082566: 4-1BB agonist monoclonal antibody from Pfizer; heavy chain SEQ ID NO:435, light chain SEQ ID NO:436",peripheral blood B cell numbers,peripheral blood B cell,either unchanged or decreased
rituximab: anti-CD20 antibody (Genentech),increase in cell lysis over natural cytotoxicity,"[1]; rituximab 0.1 and 1 μg/mL, healthy donor NK cells, Raji cells",5- to 8 fold
